Consider 30 compounds from patent US20130059850A1, “AZA-INDOLE DERIVATIVES USEFUL AS MODULATORS OF FAAH” (MERCK SHARP & DOHME CORP., priority 2010, published 2013).

For the test, the target named is T1, human FAAH (Fatty Acid Amide Hydrolase) (Homo sapiens, UniProt O00519).
T1 construct: The full length FAAH was subcloned into the mammalian expression vector, pcDEF.neo, using XbaI and EcoRI restriction sites; expressed in transfected cells
T1 sequence (O00519 1-579): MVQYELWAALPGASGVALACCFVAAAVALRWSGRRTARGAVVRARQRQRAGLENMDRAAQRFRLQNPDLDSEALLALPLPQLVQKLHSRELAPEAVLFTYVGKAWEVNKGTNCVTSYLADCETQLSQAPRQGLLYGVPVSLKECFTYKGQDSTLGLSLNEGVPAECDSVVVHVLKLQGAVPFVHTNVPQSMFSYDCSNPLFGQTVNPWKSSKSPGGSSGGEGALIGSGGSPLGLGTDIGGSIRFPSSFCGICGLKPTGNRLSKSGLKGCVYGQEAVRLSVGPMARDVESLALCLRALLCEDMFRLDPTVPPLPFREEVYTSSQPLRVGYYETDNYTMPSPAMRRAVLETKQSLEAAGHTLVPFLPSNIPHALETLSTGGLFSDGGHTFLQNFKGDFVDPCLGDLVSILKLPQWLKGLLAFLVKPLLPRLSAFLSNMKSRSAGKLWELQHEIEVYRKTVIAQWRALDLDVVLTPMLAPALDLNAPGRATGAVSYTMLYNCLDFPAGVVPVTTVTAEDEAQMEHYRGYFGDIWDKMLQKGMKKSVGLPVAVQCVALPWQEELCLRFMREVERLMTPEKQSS
As to the kind of experiment: FAAH whole cell assay on CHO cells expressing human FAAH (human WC), AAMCA fluorescent substrate. To be noted: human FAAH_CHO whole cell. Format: cell-based. The source says: To assist in assay development stable cell lines for human, murine and rat full length FAAH were developed. Human FAAH cDNA (Accession No: NM_001441.1) was purchased from Origene (Rockville, Md.). The full length FAAH was subcloned into the mammalian expression vector, pcDEF.neo, using XbaI and EcoRI restriction sites and used for stable cell line generation.
Murine (accession number NM_010173) and Rat FAAH (accession number NM_024132) was amplified by reverse transcriptase polymerase chain reaction (RT-PCR) from brain cDNA (BD Biosciences, San Jose, Calif.) using primers 1 and 2 or primers 1 and 3 respectively (see Table). The resulting PCR product was ligated into pCR4 TOPO and DNA sequence confirmed. The full length murine FAAH was subcloned into the mammalian expression vector, pcDEFneo using either EcoRI (murine) or KpnI and EcoRI (rat) restriction sites. Chinese hamster ovary cells (CHO) were transfected following manufacturers protocol (AMAXA). Forty eight hours post transfection, cells were trypsinized and transferred to 96 well plates in Iscove's DMEM media supplemented with 2 mM Glutamine, 10% fetal calf serum, 1 mg/ml geneticin and HT Supplement (0.1 mM sodium hypoxanthine, 0.016 mM thymidine) in order to isolate single clones. Following selection in geneticin, individual clones were selected and FAAH activity was assessed using a whole cell fluorescent anandamide assay, modified from Ramarao et al (2005). Following removal of tissue culture media cells were dislodged following addition of Cellstripper (Mediatech, Inc. Manassas, Va.) and transferred to 96 well black clear bottom assay plate, centrifuged at 1,000 rpm for 3 mins and media removed and replaced with assay buffer (50 mM Tris pH8.0, 1 mM EDTA, 0.1% fatty acid free BSA). The reaction was initiated by addition of fluorescent substrate, AMC Arachidonoyl Amide (Cayman Chemical, Ann Arbor, Mich.) to 1 μM and reaction allowed to proceed for 2 hours at room temperature. Release of fluorescence was monitored in a CytoFluor Multiplate Reader. Cells expressing the highest amount of FAAH activity were selected for study with FAAH inhibitors.
(American Radiolabeled Chemicals; 1 mCi/ml) with FAAH (Life Sciences (1995), 56, 1999-2005 and Journal of Pharmacology and Experimented Therapeutics (1997), 283, 729-734), Analytical. Biochemistry (2003), 318, 270-5. In addition, routine assays were performed monitoring hydrolysis of arachidonyl-7-amino-4-methylcoumarin amide (AAMCA) by following increase in fluorescence upon release of 7-amino 4-methyl coumarin (λEX=355 nm, μEM=460 nm). Analytical. Biochemistry (2005). 343, 143-51
Assays are performed on either cell lysate or microsome fractions prepared as described or in whole cell format employing either the fluorescent substrate AAMCA (Cayman chemical, Ann Arbor, Mich.,) or ^3H-anandamide ([ETHANOLAMINE-1-3H] American Radiolabeled Chemicals; 1 mCi/ml). The cell lysate or microsome assay is performed in black PerkinElmer OptiPlates-384F by adding FAAH_CHO (whole cell (human whole cell or human WC), cell lysate (human cell lysate or human LY) or microsome) in assay buffer (50 mM Phosphate, pH 8.0, 1 mM EDTA, 200 mM KCl, 0.2% glycerol, 0.1% fatty acid free BSA) to each well, followed by either DMSO or compound and allowed to incubate at 22-25° C. for fifteen minutes. AAMCA substrate was used to achieve a final concentration of 1 μM and reaction allowed to proceed at room temperature for 1-3 hours. Fluorescent release as a measure of FAAH activity was monitored by reading the plate in a Envision plate Reader (Ex: 360/40 nM; Em: 460/40 nM). Whole cell assay is conducted with cells harvested after rinsing tissue culture flasks three times with Ca^++Mg^++ free PBS, incubating for […] in Enzyme free dissociation media and centrifuging for 5 minutes at 1,000 rpm in table top centrifuge. […]

By IC50 is commonly meant the midpoint of a concentration-inhibition curve. Higher therefore signals lower potency. `Cn1cccc2c(Sc3ccc(Cl)cc3)c(C(=O)NC3CCC(O)CC3)nc1-2` (stereo not drawn) [Example E26] showed an IC50 of 504 nM.
In the case of `O=C(NCCCCO)c1[nH]c2ncccc2c1Sc1ccc(Cl)cc1` [Example C21], the IC50 is 363 nM.
Next, `O=C(NCCO)c1[nH]c2ncccc2c1Sc1ccc(Cl)cc1` [Example C18]: 2980 nM; `O=C(NCCCO)c1[nH]c2ncccc2c1Sc1ccc(Cl)cc1` [Example C19]: 607 nM; `Cn1cc2cc(-c3nc4n(C)cccc-4c3Sc3ccc(Cl)cn3)ccc2n1` [Example E30]: 87.2 nM.
Next, `CCOC(=O)CCCc1[nH]c2ncccc2c1Sc1ccc(Cl)cc1` [Example F10]: 350 nM; `COC(=O)CN1CCC(c2[nH]c3ncccc3c2Sc2ccc(Cl)cc2)CC1` [Example G7, Methyl (4-{3-[(4-chlorophenyl)sulfanyl]-1H-pyrrolo[2,3-b]pyridin-2-yl}piperidin-1-yl)acetate]: 23.8 nM.
The result for `C[C@H](CO)NC(=O)c1[nH]c2ncccc2c1Sc1ccc(Cl)cc1` [Example C20] reads 2110 nM; that for `Cn1cc2cc(-c3[nH]c4ncccc4c3Sc3ccc(Cl)cc3)ccc2n1` [Example B42], 5.84 nM.
As to `CC(C)(O)CN1CCC(c2[nH]c3ncccc3c2Sc2ccc(Cl)cc2)CC1` [Example H5], the IC50 is 31.8 nM.
The result for `Clc1ccc(Sc2c(C3CCNCC3)[nH]c3ncccc23)cc1` [Example G3, 3-[(4-chlorophenyl)sulfanyl]-2-(piperidin-4-yl)-1H-pyrrolo[2,3-b]pyridine] reads 672 nM.
Consider `C[C@H](CO)Cc1[nH]c2ncccc2c1Sc1ccc(Cl)cc1` [Example H7], for which the IC50 was 1200 nM.
Next, `O=C(NCC1(CO)CCOCC1)c1[nH]c2ncccc2c1Sc1ccc(Cl)cc1` [Example C22]: 1170 nM.
Next, `OCCCc1[nH]c2ncccc2c1Sc1ccc(Cl)cc1` [Example H4, 3-{3-[(4-chlorophenyl)sulfanyl]-1,1-pyrrolo[2,3-b]pyridin-2-yl}propan-1-ol]: 689 nM; `COC(=O)N1CCC(c2[nH]c3ncccc3c2Sc2ccc(Cl)cc2)CC1` [Example G5, Methyl 4-{3-[(4-chlorophenyl)sulfanyl]-1H-pyrrolo[2,3-b]pyridin-2-yl}piperidine-1-carboxylate]: 11.1 nM; `C[C@@H](Cc1nc2n(C)cccc-2c1Sc1ccc(Cl)cc1)C(C)(C)O` [Example E27]: 112 nM.
The result for `Cn1cccc2c(Sc3ccc(Cl)cc3)c(-c3ccc4c(c3)CNC4=O)nc1-2` [Example E28] reads 24 nM.
On to `Cn1cc2cc(-c3[nH]c4ncccc4c3Sc3ccc(Cl)cn3)ccc2n1` [Example B44], for which the IC50 turned out to be 25 nM.
Next, `Cn1cc2cc(-c3nc4n(C)cccc-4c3Sc3ccc(Cl)cc3)ccc2n1` [Example E29]: 17.3 nM; `C[C@@H](Cc1[nH]c2ncccc2c1Sc1ccc(Cl)cc1)C(C)(C)O` [Example H8]: 88.5 nM.
The result for `Cn1cccc2c(Sc3ccc(Cl)cc3)c(-c3ccc(C(O)C(F)F)cc3)nc1-2` (stereo not drawn) [Example E25] reads 59.5 nM; that for `O=C(c1[nH]c2ncccc2c1Sc1ccc(Cl)cc1)N1CCC(O)CC1` [Example C6, {3-[(4-chlorophenyl)sulfanyl]-1H-pyrrolo[2,3-b]pyridin-2-yl}(4-hydroxypiperidin-1-yl)methanone], 1090 nM.
`CCOC(=O)CCc1[nH]c2ncccc2c1Sc1ccc(Cl)cc1` [Example F3, Ethyl 3-{3-[(4-chlorophenyl)sulfanyl]-1H-pyrrolo[2,3-b]pyridin-2-yl}propanoate] gave an IC50 of 64.9 nM.
For the compound `N#CCCCc1[nH]c2ncccc2c1Sc1ccc(Cl)cc1` [Example F6], 3470 nM corresponded to half-maximal inhibition (IC50).
Compound `Clc1ccc(Sc2c(CC3CCCCC3)[nH]c3ncccc23)cc1` [Example F4] came in with an IC50 of 266 nM.
Next, `Cn1cccc2c(Sc3ccc(Cl)cn3)c(-c3ccc4c(c3)CNC4=O)nc1-2` [Example E31]: 144 nM.
Next, `OCCCCc1[nH]c2ncccc2c1Sc1ccc(Cl)cc1` [Example H6]: 523 nM.
As for `OC[C@H]1CC[C@H](c2[nH]c3ncccc3c2Sc2ccc(Cl)cc2)CC1` [Example B52], the IC50 worked out at 35.6 nM.
The result for `CC(C)(O)CCc1[nH]c2ncccc2c1Sc1ccc(Cl)cc1` [Example H2, 4-{3-[(4-chlorophenyl)sulfanyl]-1H-pyrrolo[2,3-b]pyridin-2-yl}-2-methylbutan-2-ol] reads 152 nM.
As to `COC(=O)N1CCC(c2nc3n(C)cccc-3c2Sc2ccc(Cl)cc2)CC1` [Example E32], 9.35 nM corresponded to half-maximal inhibition (IC50).
